Details of data set [1]: method as in PMID 36802283. The conditions noted are these: cited from earlier work.
Data set [2] relates to CHO cells. The experiment in a line: Cellular uptake and co-localisation by confocal microscopy. The note with it: ER Tracker 1 µM, 45 min. It is filed as cell-based, Chinese Hamster. How it is done: The intracellular uptake of the BODIPY derivatives was assessed in two mammalian cell lines, CHO (non‐cancer) and MCF‐7 (cancer). […] B2P and B2PI were studied following 4 h and 17 h incubation in MCF‐7 cells with 10 μM of each BODIPY derivative. A 17 h incubation was selected to allow for adequate cell uptake of the complex, ensuring sufficient brightness for confocal imaging while minimising cell toxicity.
Across all four compounds uptake of the BODIPYs led to extremely bright and highly punctate staining from within the cells. As all of the BODIPY‐perylene probes emit minimally from aqueous media including cell culture media (Figure S20) the bright emission is attributed to localisation of the complex to non‐aqueous domains, i. e. organelle membranes or to lipid droplets (LDs). To identify which, co‐localisation studies with targeted probes were completed. CHO and MCF‐7 cells were treated with B2P, B2PI, MB2P or MB2PI and co‐stained with specific organelle markers including LD probes; PyLa−C17Cer and BODIPY 493/503, an endoplasmic reticulum stain; ER Tracker Blue‐White and a lysosomal stain; LysoTracker Deep Red. Pyla‐C17Cer was previously published and localises in both the ER and LDs.[41] Cellular uptake of B2PI was recently reported in MCF‐7 cells, though localisation was not explored.[25]
MCF‐7 and CHO cells were treated with B2P, MB2P, B2PI or MB2PI for 17 h and co‐stained with a number of dyes for co‐staining including LysoTracker Deep Red, ER Tracker Blue/White, PyLa−C17Cer, BODIPY 493/503 and H2DCFDA. Cells were imaged in phenol red free media using a Leica DMi8 confocal microscope with a 63x or 100x oil immersion lens and a heated state at 37 °C.
Uptake in Live Cell Monolayers
CHO cells were incubated in 75cm2 cell culture flasks (Corning) with DMEM/F-12 Ham medium (Sigma-Aldrich) with L-glutamine and sodium bicarbonate supplemented with 10% fetal bovine serum (FBS) (Gibco) and 1% penicillin-streptomycin (Sigma-Aldrich). MCF-7 cells were incubated in 25cm2 cell culture flasks with RPMI-1640 medium (Sigma-Aldrich) with L-glutamine and sodium bicarbonate supplemented with 10% fetal bovine serum (FBS, Gibco) and 1% penicillin-streptomycin. Cells were incubated at 37 °C with 5% CO2 and detached from the flask at 90% confluency using a 1X Trypsin-EDTA solution (Sigma-Aldrich). Cells were counted using the EVE automated cell counter (NanoEnTek) and seeded at 1 x 10^5 cells per mL in a 4 or 8 chamber µ-slide (ibidi) for cell imaging and left for 24 h at 37 °C. Cells were rinsed with 1X PBS (Gibco) and stained with B2P or B2PI at 10 µM and MB2P or MB2PI at 30 µM for 17 h. Cells were washed twice with PBS and covered with phenol red free RPMI medium (Gibco) for imaging. […]

The nature of data set [3]: Photophysical properties (absorption, emission, quantum yield, lifetime) in solvents. Format: physicochemical. The note with it: for Φf: absolute quantum yield, integrating sphere; for τave: intensity weighted average lifetime; for kr: kr=ΦF/τave; for emission intensity from water relative to emission intensity from toluene: matched absorption, water with 10 % DMSO. From the text:
The absorption and emission spectra of MB2P and MB2PI are shown in Figure 3, in a range of solvents across polarities. […] The absorption maxima is largely unaffected by solvent, similar to B2P/B2PI. The extinction coefficient is also modestly affected for MB2P but does vary with solvent for MB2PI, although the change is not correlated with solvent polarity. All compounds also show characteristic perylene absorption features between 400 and 430 nm. Also consistent with this previous study, the emission spectra are strongly solvent dependent. Intensely emissive from non‐polar media, MB2P and MB2PI are minimally emissive in polar (ethanol and DMSO) and aqueous media, (with 10 % DMSO for solubilisation). For example, under matched absorption conditions used to generate Figure 3, the emission intensity from water was 0.13 % (MB2P) and 1.6 % (MB2PI) of the emission intensity from toluene (see Figure S20).
Figure 3 Right, Absorption spectra of (A) MB2P and (B) MB2PI in different solvents at 10 μM, and, left, their respective emission. Excitation wavelength 532 nm, data recorded with 2.5–2.5 nm slit widths.

Several values for one entry are separate records, joined by “and”; a condition that tells them apart may be missing. Equal entries are not always repeated. Where two headings read alike, the source gives them in different places.

The text below walks through data of paper PMC11653243, “Enhancing Phototoxicity in BODIPY‐Perylene Charge Transfer Dyads by Combined Iodination and Mesylation” (Chemistry (Weinheim an Der Bergstrasse, Germany), 2024).

As for `CC1=C(I)C(C)=[N+]2C1=C(c1ccccc1)c1c(C)c(-c3ccc4c5cccc6cccc(c7cccc3c74)c65)c(C)n1[B-]2(F)F` [B2PI], in data set [1] (Dioxane), the “Mol. Bright” value is given as 2028, the “Stokes Shift” value is 3232 cm⁻¹, the knr is reported as 68 10^7 s^−1 and the kr was 1.8 10^7 s^−1. In data set [1] (Dioxane), the Φf was 0.03, the λabs is reported as 531 nm, the λem is listed as 641 nm and the τave is reported as 1.4±0.01 ns. Moreover, in data set [1] (Dioxane), the ϵ is 67600 M⁻¹ cm⁻¹. Also, in data set [1] (Toluene), the “Amp of τ1” value was 7.2%, the “Amp of τ2” value is reported as 92.8%, the “Mol. Bright” value is given as 1899 and the “Stokes Shift” value was 3003 cm⁻¹. Besides, in data set [1] (Toluene), the knr is reported as 32 10^7 s^−1, the kr is 8.5 10^7 s^−1, the Φf is 0.03 and the λabs is given as 534 nm. In addition, in data set [1] (Toluene), the λem is given as 636 nm, the τ1 is given as 2.9±0.1 ns, the τ2 is on record as 0.7±0.01 ns and the τave is 1.2±0.0 ns. The ϵ in data set [1] (Toluene) is 63300 M⁻¹ cm⁻¹. In addition, the “Pearson Coefficient (r) with ER Tracker Blue/White” value in data set [2] was 0.46 ± 0.04 and ~0.5.

For the compound `CC1=CC(C)=[N+]2C1=C(c1ccccc1)c1c(C)c(-c3ccc4c5cccc6cccc(c7cccc3c74)c65)c(C)n1[B-]2(F)F` [B2P], in data set [1] (Dioxane), the “Amp of τ1” value is listed as 5.3%, the “Amp of τ2” value was 94.7%, the “Mol. Bright” value is 6588 and the “Stokes Shift” value is 3417 cm⁻¹. In data set [1] (Dioxane), the knr was 44 10^7 s^−1, the kr was 4.6 10^7 s^−1, the Φf is recorded as 0.09 and the λabs is 515 nm. Besides, in data set [1] (Dioxane), the λem is listed as 625 nm, the τ1 is given as 4.1±0.2 ns, the τ2 was 1.8±0.0 ns and the τave is recorded as 2.0±0.0 ns. For the same compound, the ϵ in data set [1] (Dioxane) was 73200 M⁻¹ cm⁻¹. In addition, in data set [1] (Toluene), the “Mol. Bright” value was 16884, the “Stokes Shift” value was 3071 cm⁻¹, the knr is 79 10^7 s^−1 and the kr is listed as 2.6 10^7 s^−1. Also, in data set [1] (Toluene), the Φf is 0.21, the λabs was 518 nm, the λem is given as 616 nm and the τ1 is 2.5±0.0 ns. In data set [1] (Toluene), the τave is 2.5±0.01 ns and the ϵ was 80400 M⁻¹ cm⁻¹. Further, the “Pearson Coefficient (r) with ER Tracker Blue/White” value in data set [2] came to 0.17 ± 0.06.

Regarding `CC1=C(c2ccc3c4cccc5cccc(c6cccc2c63)c54)C(C)=[N+]2C1=C(c1c(C)cc(C)cc1C)c1c(C)cc(C)n1[B-]2(F)F` [MB2P], in data set [2], the “Pearson Coefficient (r) with ER Tracker Blue/White” value is 0.56 ± 0.02 and ~0.5. Besides, in data set [3] (Dioxane), the “Mol. Bright” value turned out to be 20516, the “Stokes Shift” value came out at 3131 cm⁻¹, the knr is on record as 25 10^7 s^−1 and the λem came to 614 nm. In data set [3] (Dioxane), the τ1 is 3.1±0.1 ns, the ϵ amounted to 89200 M⁻¹ cm⁻¹, the Φf was found to be 0.23 and the τave worked out at 3.1±0.1 ns. In addition, in data set [3] (Dioxane), the kr is given as 7.4 10^7 s^−1. Besides, in data set [3] (Toluene), the “Mol. Bright” value is 32148, the “Stokes Shift” value turned out to be 3002 cm⁻¹, the knr is on record as 23 10^7 s^−1 and the λabs was found to be 517 nm. Moreover, in data set [3] (Toluene), the λem was found to be 612 nm, the τ1 is given as 2.8±0.0 ns, the ϵ came out at 89300 M⁻¹ cm⁻¹ and the Φf came to 0.36. For the same compound, in data set [3] (Toluene), the τave came out at 2.8±0.0 ns and the kr is given as 12.9 10^7 s^−1. Moreover, the “emission intensity from water relative to emission intensity from toluene” value in data set [3] was 0.13%.

For the compound `CC1=C(c2ccc3c4cccc5cccc(c6cccc2c63)c54)C(C)=[N+]2C1=C(c1c(C)cc(C)cc1C)c1c(C)c(I)c(C)n1[B-]2(F)F` [MB2PI], the “Pearson Coefficient (r) with ER Tracker Blue/White” value in data set [2] was 0.46 ± 0.01 and ~0.5. Moreover, in data set [3] (Dioxane), the “Amp of τ1” value was 2.5%, the “Amp of τ2” value is recorded as 97.5%, the “Mol. Bright” value turned out to be 4374 and the “Stokes Shift” value was determined as 3049 cm⁻¹. In data set [3] (Dioxane), the knr is 85 10^7 s^−1, the λabs is given as about 532 nm, the λem stood at 635 nm and the τ1 worked out at 4.0±0.1 ns. Besides, in data set [3] (Dioxane), the τ2 was 0.7 ns and 0.7±0.01 ns; the ϵ is 72900 M⁻¹ cm⁻¹; the Φf was 0.06; the τave is recorded as 1.1±0.0 ns. In addition, in data set [3] (Dioxane), the kr was 5.73 10^7 s^−1. For the same compound, in data set [3] (Toluene), the “Amp of τ1” value worked out at 5.6%, the “Amp of τ2” value came out at 94.4%, the “Mol. Bright” value is 6534 and the “Stokes Shift” value was 2854 cm⁻¹. Moreover, in data set [3] (Toluene), the knr was 114 10^7 s^−1, the λabs is recorded as 534 nm, the λem was determined as 630 nm and the τ1 stood at 1.6±0.1 ns. In addition, in data set [3] (Toluene), the τ2 is 0.7 ns and 0.7±0.01 ns; the ϵ is 72600 M⁻¹ cm⁻¹; the Φf is 0.09; the τave stood at 0.8±0.0 ns. Further, the kr in data set [3] (Toluene) is 11.2 10^7 s^−1. For the same compound, the “emission intensity from water relative to emission intensity from toluene” value in data set [3] amounted to 1.6%.
